The record followed here is patent US11971413B2, “Peptoid, and its preparation method and use” (BEIJING BOE TECHNOLOGY DEVELOPMENT CO., LTD., priority 2019, dated 2024).

Structures are written as SMILES. Where a SMILES comes first, the peptide text is derived from it. [ ]: non-standard residue; d: D form. ξ: configuration not given here. N(CH2CH2COOH)Gly = O=C(O)CCNCC(=O)O; Gly(N-CH2CH2OH) = O=C(O)CNCCO; Nleu = CC(C)CNCC(=O)O; Nlys = NCCCCNCC(=O)O; ξC = NC(CS)C(=O)O

Assay [1] relates to Huh7 cell line with high expression of an EpCAM protein. As to the kind of experiment: Cell-level imaging with fluorescently labeled peptoid molecular probe, laser confocal microscopy, Huh7 cells. In kind it is cell-based. Particulars: probe incubated at 4° C. for 30 min, confocal 100× oil objective. Here is the method:
(§1) The specific steps for cell-level imaging using a fluorescently labeled molecular probe with a peptoid were as follows: • (1) Cell culture and passage: The cell models were an Huh7 cell line with high expression of an EpCAM protein and a human embryonic kidney 293T cell line with low expression of EpCAM (Shanghai Biological Technology Co., Ltd. enzyme research); Huh7 and 293T cells were cultured in a constant temperature incubator (5% CO2) at 37° C. with RPMI1640 medium and DMEM/High glucose medium containing 10% fetal bovine serum and 1% penicillin and streptomycin, respectively; • (2) When the degree of cell fusion reached more than 90%, the cells were passaged. […]

Assay [2] deals with human embryonic kidney 293T cell line with low expression of EpCAM. As to the kind of experiment: Cell-level imaging with fluorescently labeled peptoid molecular probe, laser confocal microscopy, 293T control cells. It counts as cell-based. The following applies: 293T cells (low EpCAM, control group), probe incubated at 4° C. for 30 min, confocal 100× oil objective. Here is the method:
as §1

Regarding `CC(C)CNCC(=O)N(CCCCN)CC(=O)N(CCO)CC(=O)N(CCC(=O)O)CC(=O)N(CCCCN)CC(=O)N(CCCCN)CC(=O)NC(CS)C(N)=O` (centres unmarked) [Example 1] (H-[Nleu][Nlys][Gly(N-CH2CH2OH)][N(CH2CH2COOH)Gly][Nlys][Nlys][ξC]-NH2), the figures for the “FITC green fluorescence on the cell membrane” value in assay [1] and in assay [2] were “Significant green fluorescence” and “weak green fluorescence or no green fluorescence”, respectively.
